Experimental findings from patent US10722563B2, “Prostate-specific tumor antigens and uses thereof” (SHENZHEN INNOVATION IMMUNOTECHNOLOGY CO., LTD., priority 2012, dated 2020) are described below.

In this assay the test system is PBMCs of ten HLA-A2+ healthy subjects. Nature of the assay: In vitro stimulation of peptide-specific T cells in PBMCs of healthy subjects, IFN-γ release by ELISA. The class given is cell-based, human. As to conditions: PBMCs stimulated 14 days with peptide 20 μg/mL, response to T2 cells pre-loaded with peptide 5 μg/mL. As for the experimental part: Ten HLA-A2+ prostate cancer patients and ten HLA-A2+ healthy subjects were enrolled in this study after written informed consent was obtained. All protocols were approved by the Institutional Review Board (IRB) of Baylor College of Medicine before commencing studies. 20 mL of peripheral blood was obtained from each person, and peripheral blood mononuclear cells (PBMCs) were isolated by density gradient centrifugation using Lymphoprep (Nycomed Pharma AS; Oslo, Norway). The freshly isolated PBMCs were cryopreserved for later use in 1 mL freezing medium containing 90% FCS and 10% dimethyl sulfoxide (DMSO) at −140° C. The expression of HLA-A2 molecules on PBMCs obtained from cancer patients and healthy subjects was verified by flow cytometry with FITC-labeled HLA-A2 mAb BB7.2 (BD Pharmingen, San Diego, Calif., USA).
PBMCs (1×10^5 cells/well) from either healthy subjects or prostate cancer patients were incubated with standard peptide concentrations of 20 μg/mL per peptide in 96-well U-bottom microplates (BD, Franklin Lakes, N.J., USA) in 200 μL of T-cell medium (TCM), consisting of RPMI 1640 (Mediatech, Manassas, Va., USA), 10% human AB serum (Valley Biomedical, Winchester, USA), 50 μM of 2-mercaptoethanol, 100 U/mL of interleukin-2 (IL-2), and 0.1 mM MEM nonessential amino acid solution (Invitrogen, Grand Island, N.Y., USA). Half of the TCM was removed and replaced with fresh TCM containing peptides (20 μg/mL) every 5 days. After 14 days of culture, the cells were harvested and tested for their ability to produce IFN-γ in response to T2 cells (1×10^4 cells/well), which were pre-loaded with either PSGR peptide (5 μg/mL) or a control peptide (an irrelevant HL-A2 binding peptide: NLLTHVESL) as a negative control. After 18 hours of incubation, supernatants were collected, and IFN-γ release was determined by ELISA assay.
Cytokine release was measured by coating 96-well ELISA plates (Thermo Fisher Scientific; Rochester, N.Y., USA) with 1 μg/mL anti-human IFN-γ (Pierce Biotechnology; Rockford, Ill., USA) overnight at 4° C. The plate was washed six times with PBS containing 0.05% Tween-20 (wash solution) to remove unbound coating antibody, and blocked with 1% BSA/PBS at room temperature for 2 hrs. Afterwards, 50 μL supernatant was added to each well and incubated at room temperature for 1 hr, then 50 μL of 0.5 μg/mL biotinylated anti-human IFN-γ (Pierce Biotechnology; Rockford, Ill., USA) was added and plates were incubated for an additional 1 hr at room temperature. After incubation, plates were washed and incubated for 30 min with Poly-HRP-Streptavidin (Thermo Fisher Scientific; Rochester, N.Y., USA) diluted 1:5000 in PBS/1% BSA. Plates were washed and 100 μL of TMB substrate solution (Sigma-Aldrich Co.; St. Louis, Mo., USA) was added per well. The colorimetric reaction was stopped using 2N H2SO4 and plates were read at 450 nm using an ELISA plate reader.
To determine whether PSGR-reactive T cell precursors are present in healthy subjects, we obtained PBMCs from 10 HLA-A2+ healthy donors and stimulated them in vitro with each of the 21 PSGR-derived peptides containing HLA-A2-binding motif (Table 1). After 2 weeks of peptide stimulation, supernatants from peptide-stimulated T cells were analyzed by ELISA assay to detect IFN-γ release in response to T2 cells pulsed with or without corresponding peptides.
A general note: In an ELISA, binding on a coated surface is turned into a signal by an enzyme label.

Take TLPRVTKIGV (PSGR23): the “concentrations of IFN-γ in the supernatants” value (shortened to “concentrations of IFN-γ”) worked out at 0 pg/mL (healthy subject #1); 0 pg/mL (healthy subject #2); 0 pg/mL (healthy subject #3); 0 pg/mL (healthy subject #4); 0 pg/mL (healthy subject #5); 0 pg/mL (healthy subject #6).

Take CLHQDVMKL [PSGR7]: the “concentrations of IFN-γ” value came out at 0 pg/mL (healthy subject #1); 0 pg/mL (healthy subject #2); 0 pg/mL (healthy subject #3); 0 pg/mL (healthy subject #4); 168 pg/mL (healthy subject #5); 0 pg/mL (healthy subject #6).

Regarding SLHEPMYIFL (PSGR19), the “concentrations of IFN-γ” value worked out at 0 pg/mL (healthy subject #1); 0 pg/mL (healthy subject #2); 0 pg/mL (healthy subject #3); 0 pg/mL (healthy subject #4); 195 pg/mL (healthy subject #5); 0 pg/mL (healthy subject #6).

For CMLSGIDILI (PSGR17), the “concentrations of IFN-γ” value came out at 0 pg/mL (healthy subject #1); 0 pg/mL (healthy subject #2); 0 pg/mL (healthy subject #3); 0 pg/mL (healthy subject #4); 0 pg/mL (healthy subject #5); 0 pg/mL (healthy subject #6).

On to LLILKTVLGL (PSGR15), for which the “concentrations of IFN-γ” value was found to be 0 pg/mL (healthy subject #1); 0 pg/mL (healthy subject #2); 456 pg/mL (healthy subject #3); 0 pg/mL (healthy subject #4); 0 pg/mL (healthy subject #5); 0 pg/mL (healthy subject #6).

Take YVPFIGLSMV (PSGR24): the “concentrations of IFN-γ” value amounted to 0 pg/mL (healthy subject #1); 0 pg/mL (healthy subject #2); 0 pg/mL (healthy subject #3); 0 pg/mL (healthy subject #4); 0 pg/mL (healthy subject #5); 0 pg/mL (healthy subject #6).

For ALMAPLPVFI (PSGR13), the “concentrations of IFN-γ” value by setting is: (healthy subject #1) 0 pg/mL; (healthy subject #2) 0 pg/mL; (healthy subject #3) 0 pg/mL; (healthy subject #4) 0 pg/mL; (healthy subject #5) 0 pg/mL; (healthy subject #6) 0 pg/mL.

In the case of FIFYVPFIGL (PSGR22), the “concentrations of IFN-γ” value is 289 pg/mL (healthy subject #1); 0 pg/mL (healthy subject #2); 0 pg/mL (healthy subject #3); 0 pg/mL (healthy subject #4); 0 pg/mL (healthy subject #5); 0 pg/mL (healthy subject #6).

On to LLQMFAIHSL (PSGR18), for which the “concentrations of IFN-γ” value is, setting by setting: (healthy subject #1) 176 pg/mL; (healthy subject #2) 0 pg/mL; (healthy subject #3) 0 pg/mL; (healthy subject #4) 0 pg/mL; (healthy subject #5) 0 pg/mL; (healthy subject #6) 0 pg/mL.

Turning to GLEEAQFWLA (PSGR12), the “concentrations of IFN-γ” value is, setting by setting: (healthy subject #1) 0 pg/mL; (healthy subject #2) 139 pg/mL; (healthy subject #3) 0 pg/mL; (healthy subject #4) 246 pg/mL; (healthy subject #5) 0 pg/mL; (healthy subject #6) 432 pg/mL.

As to SLLISFSYLL (PSGR10), the “concentrations of IFN-γ” value was determined as 917 pg/mL (healthy subject #1); 0 pg/mL (healthy subject #2); 0 pg/mL (healthy subject #3); 0 pg/mL (healthy subject #4); 0 pg/mL (healthy subject #5); 0 pg/mL (healthy subject #6).

Take KLACDDIRV (PSGR2): the “concentrations of IFN-γ” value came to 0 pg/mL (healthy subject #1); 0 pg/mL (healthy subject #2); 455 pg/mL (healthy subject #3); 0 pg/mL (healthy subject #4); 0 pg/mL (healthy subject #5); 0 pg/mL (healthy subject #6).

On to LLAMAFDRYV (PSGR20), for which the “concentrations of IFN-γ” value runs as follows: (healthy subject #1) 0 pg/mL; (healthy subject #2) 0 pg/mL; (healthy subject #3) 0 pg/mL; (healthy subject #4) 0 pg/mL; (healthy subject #5) 0 pg/mL; (healthy subject #6) 0 pg/mL.

Regarding VLGNLTIIYI (PSGR21), the “concentrations of IFN-γ” value was determined as 0 pg/mL (healthy subject #1); 291 pg/mL (healthy subject #2); 0 pg/mL (healthy subject #3); 0 pg/mL (healthy subject #4); 300 pg/mL (healthy subject #5); 377 pg/mL (healthy subject #6).

As to VLNPIVYGV (PSGR1), the “concentrations of IFN-γ” value (healthy subject #1) came out at 195 pg/mL; the “concentrations of IFN-γ” value (healthy subject #2) stood at 0 pg/mL; the “concentrations of IFN-γ” value (healthy subject #3) is 0 pg/mL; the “concentrations of IFN-γ” value (healthy subject #4) was 0 pg/mL; the “concentrations of IFN-γ” value (healthy subject #5) turned out to be 0 pg/mL; the “concentrations of IFN-γ” value (healthy subject #6) was 281 pg/mL.

Turning to YLLILKTVL (PSGR5), the “concentrations of IFN-γ” value runs as follows: (healthy subject #1) 0 pg/mL; (healthy subject #2) 0 pg/mL; (healthy subject #3) 0 pg/mL; (healthy subject #4) 0 pg/mL; (healthy subject #5) 0 pg/mL; (healthy subject #6) 0 pg/mL.

On to HVCAVFIFYV (PSGR11), for which the “concentrations of IFN-γ” value (healthy subject #1) is 0 pg/mL; the “concentrations of IFN-γ” value (healthy subject #2) came out at 0 pg/mL; the “concentrations of IFN-γ” value (healthy subject #3) came to 0 pg/mL; the “concentrations of IFN-γ” value (healthy subject #4) was determined as 0 pg/mL; the “concentrations of IFN-γ” value (healthy subject #5) was 0 pg/mL; the “concentrations of IFN-γ” value (healthy subject #6) was 0 pg/mL.

Take YLIAVLGNLT (PSGR16): the “concentrations of IFN-γ” value by setting is: (healthy subject #1) 602 pg/mL; (healthy subject #2) 0 pg/mL; (healthy subject #3) 0 pg/mL; (healthy subject #4) 0 pg/mL; (healthy subject #5) 163 pg/mL; (healthy subject #6) 0 pg/mL.
